Source: patent publication US20220088040A1, “Use of System XC-Inhibitor for Treating Statin-Induced Myalgia” (Exerkine Corporation, priority 2017, published 2022)

Assays:
C2C12 myotubes = test: Glutamate efflux from C2C12 myotubes (Amplex Red glutamic acid assay of culture media); assay type: cell-based, murine; details: for effect on glutamate efflux caused by atorvastatin: sulfasalazine 20 μM, cysteamine bitartrate 100 and 300 μM, vitamin E 100 μM, coenzyme Q10 50 μM; for glutamate efflux levels: co-treated with atorvastatin 5 μM and sulfasalazine 20 μM
Sprague Dawley rats = test: Extramyocellular glutamate in rat gastrocnemius muscle by interstitial microdialysis; assay type: in vivo; details: 10 days, muscle dialysate (FIG. 6)
system Xc- subunit xCT = test: xCT protein content in C2C12 myotubes by chemiluminescent immunoblot; assay type: cell-based, murine; details: atorvastatin 5 μM
[1] = system: primary human fibroblasts; test: Glutamate efflux from primary human fibroblasts; assay type: cell-based; details: statin (atorvastatin 5 μM) (FIG. 3B)
primary human myoblasts = details: co-treatment of statin (atorvastatin 5 μM) with sulfasalazine 20 μM (FIG. 3A)
[2] = 5 μM atorvastatin, combination 100 μM vitamin E + 35 μM coenzyme Q10, N-acetylcysteine 5 mM (FIG. 4)
[3] = 7.5 μM atorvastatin, combination 100 μM vitamin E + 35 μM coenzyme Q10, N-acetylcysteine 5 mM (FIG. 5)

Compound | effect on glutamate efflux caused by atorvastatin (C2C12 myotubes; [2]) | effect on glutamate efflux caused by atorvastatin (C2C12 myotubes; [3]) | also measured
NCCS.O=C(O)C(O)C(O)C(=O)O (stereo not shown) [Cysteamine bitartrate] | mitigated | mitigated | –
CC(=O)N[C@@H](CS)C(=O)O [N-acetylcysteine] | substantially increased | substantially increased | –
CC(C)c1c(C(=O)Nc2ccccc2)c(-c2ccccc2)c(-c2ccc(F)cc2)n1CC[C@@H](O)C[C@@H](O)CC(=O)O [atorvastatin] | – | – | increase in extramyocellular glutamate concentrations compared with the Control group (Sprague Dawley rats; atorvastatin 40 mg/kg/day oral): 21%; elevated xCT protein level (system Xc- subunit xCT; 24 hour time point (FIG. 1)): still present; elevation in xCT abundance (system Xc- subunit xCT; after 12 hours, vs vehicle (FIG. 1)): approximately 2 fold; extracellular glutamate concentrations [1]: no changes
O=C(O)c1cc(/N=N/c2ccc(S(=O)(=O)Nc3ccccn3)cc2)ccc1O [sulfasalazine] | inhibited | inhibited | extramyocellular glutamate concentrations, lower than Control (Sprague Dawley rats; atorvastatin 40 mg/kg/day with sulfasalazine 200 mg/kg/day oral): 19%; glutamate efflux levels (C2C12 myotubes; 6 hour time point (FIG. 2)): initial increase; glutamate efflux levels (C2C12 myotubes; 12 hour to 24 hour time points (FIG. 2)): declined to baseline levels; glutamate efflux (C2C12 myotubes; sulfasalazine alone 20 μM, throughout the 0-24 h treatment period (FIG. 2)): around those of baseline values; glutamate efflux / extracellular glutamate levels (primary human myoblasts): blocked this efflux and further reduced extracellular glutamate levels to those below the vehicle control group
COc1c(O)c(C)c(C/C=C(\C)CC/C=C(\C)CC/C=C(\C)CC/C=C(\C)CC/C=C(\C)CC/C=C(\C)CC/C=C(\C)CC/C=C(\C)CC/C=C(\C)CCC=C(C)C)c(O)c1OC [ubiquinol] | mitigated | mitigated | –
vitamin E | mitigated | mitigated | –
